Reference: article PMC3925890 (Advanced healthcare materials, 2012)

Tests used:
VEGF [1] = target: T1, VEGF (Homo sapiens, UniProt P15692); assay type: binding; conditions: Fig. 1b; varying concentrations of VEGF; microspheres containing lysine modified dimers
T1 sequence (P15692 1-191 isoform P15692-4): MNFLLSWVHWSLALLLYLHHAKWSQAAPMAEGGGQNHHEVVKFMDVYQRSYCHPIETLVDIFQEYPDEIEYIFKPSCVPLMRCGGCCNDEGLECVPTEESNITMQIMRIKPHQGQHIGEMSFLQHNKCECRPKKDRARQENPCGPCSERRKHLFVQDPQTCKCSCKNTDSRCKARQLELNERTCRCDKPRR

VEGF [2] = target: T1, VEGF; test: Release of VEGF from functionalized microspheres; conditions: for bound VEGF released in 24 hours: microspheres incubated in a medium containing 10% FBS; for VEGF release relative to monomer microspheres (in words) / duration of sustained VEGF release: microspheres pre-incubated in 40 ng/ml VEGF solution (Fig. 3a)
[3] = tested on: uterine artery endothelial cells (UAECs); conditions: 10 ng/ml VEGF-165; compared with VEGF-free condition

bound VEGF released in 24 hours (VEGF [2]) | duration of sustained VEGF release (VEGF [2]) | Substance | VEGF binding efficiency over a range of VEGF concentrations (in words) (VEGF [1]) | VEGF release relative to monomer microspheres (in words) (VEGF [2]) | percent of responding UAECs (in words) [3]
72 ± 2% | over 30 days | (EFdAdYdLdIDFNWEYPAS)2KKKC [dimerb] | consistently showed a higher VEGF binding efficiency than dimera | released significantly more VEGF and over a longer period of time relative to microspheres containing the monomer version | 
48 ± 5% | over 30 days | (EFdAdYdLdIDFNWEYPASK)2KC [dimera] |  | released significantly more VEGF and over a longer period of time relative to microspheres containing the monomer version | reduced to the same level as the VEGF-free condition
